# According to article PMC3027353 (Journal of nuclear medicine : official publication, Society …, 2010):
# Where two headings read alike, the source gives them in different places.
# Assays:
# TSPO [1] = target: T1, TSPO (Rattus norvegicus, UniProt P16257); test: Radioligand displacement of [^3H]PK 11195 by PBR06 in C6 glioma cell lysate; type: binding; conditions: C6 glioma cell line homogenates/lysate; non-linear regression; triplicate
# TSPO [2] = target: T1, TSPO; conditions: cited from earlier work
# TSPO [3] = target: T1, TSPO; type: in vivo; conditions: for K1/k2: 3-compartment, 4-rate constant model; for VT (total distribution volume): from graphical analysis, N = 4
# [4] = HPLC radiometabolite analysis of arterial plasma after [^18F]PBR06 injection; type: in vivo, rat
# TSPO [5] = target: T1, TSPO; conditions: in vivo
# T1 sequence (P16257 whole entry): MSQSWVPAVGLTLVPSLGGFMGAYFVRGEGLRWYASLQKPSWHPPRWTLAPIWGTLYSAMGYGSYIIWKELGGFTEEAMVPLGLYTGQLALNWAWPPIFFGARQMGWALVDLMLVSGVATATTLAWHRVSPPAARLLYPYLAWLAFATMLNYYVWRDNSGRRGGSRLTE
compound,measurement,setting,value
"COc1ccc(OC)c(CN(C(=O)CF)c2ccccc2Oc2ccccc2)c1 [PBR06, N-fluoroacetyl-N-(2,5-dimethoxybenzyl)-2-phenoxyaniline]","IC50, displacement of [^3H]PK 11195",TSPO [1],in the nanomolar range
CCC(C)N(C)C(=O)c1cc2ccccc2c(-c2ccccc2Cl)n1 (centres unmarked) [PK 11195],In vitro affinity for TSPO,TSPO [2],low nanomolar range
CN1C(=O)CN=C(c2ccc(Cl)cc2)c2cc(Cl)ccc21 [Ro5-4864],In vitro affinity for TSPO,TSPO [2],low nanomolar range
"COc1ccc(OC)c(CN(C(=O)C[18F])c2ccccc2Oc2ccccc2)c1 [[^18F]PBR06, ^18F-N-fluoroacetyl-N-(2,5-dimethoxybenzyl)-2-phenoxyaniline]",K1/k2,"TSPO [3]; Brain, mean ± S.E., N = 3",6.164 ± 2.049 mL/g
same,VT (total distribution volume),"TSPO [3]; Brain, mean ± S.E.",13.07 ± 3.901 mL/g
same,k3,"TSPO [3]; Brain, mean ± S.E., N = 3",0.0714 ± 0.0261 min⁻¹
same,k4,"TSPO [3]; Brain, mean ± S.E., N = 3",0.00945 ± 0.005532 min⁻¹
same,K1/k2,"TSPO [3]; Tumor, mean ± S.E., N = 3",5.947 ± 1.982 mL/g
same,VT (total distribution volume),"TSPO [3]; Tumor, mean ± S.E.",63.90 ± 3.400 mL/g
same,k3,"TSPO [3]; Tumor, mean ± S.E., N = 3",0.3870 ± 0.1592 min⁻¹
same,Plasma clearance,TSPO [3]; after initial spike following tracer injection,rapidly cleared from plasma
same,Total radioactivity in tumor tissue relative to normal brain,"TSPO [3]; last 20 minutes of the 90 min PET scan, C6 glioma-bearing rats",three- to four-fold higher
same,Fraction of plasma radioactivity,"[4]; at 45 min after [^18F]PBR06, 15 min after cold PBR06 infusion",57%
same,Fraction of plasma radioactivity,[4]; printed 'at 2.8 min' (2 min sample after [^18F]PBR06 injection),75%
same,Fraction of plasma radioactivity,[4]; printed 'at 30 min' (25 min sample after [^18F]PBR06 injection),38%
same,Displaceable binding of [^18F]PBR06 in tumor,TSPO [5],approximately 75%
same,"Tumor activity after PBR06 injection, as % of peak tumor uptake",TSPO [5],approximately 25%
